Values of other authors in patent publication US20030180354A1 (DR. REDDY'S LABORATORIES LIMITED, priority 2001, published 2003).

Conditions: in man

Oral bioavailability: 64%
Structure (SMILES): CCOC(=O)C1=C(COCCN)NC(C)=C(C(=O)OC)C1c1ccccc1Cl (racemic) [Amlodipine, (±)-2-[(2-Aminoethoxy)methyl]-4-(2-chlorophenyl)-3-ethoxycarbonyl-5-methoxycarbonyl-6-methyl-1,4-dihydropyridine]
